System: HTCFs
Assay: Lipid Mediator Secretion Assay II (ASA or APHS with and without gentamicin, LC-MS/MS)
Assay type: cell-based, human
Settings: for CytoM1+TGFb1 induced COX2 activity, as measured through PGE2 and kPGF1a secretion / secretion of acetylated-COX2 products, as measured through 5-HETE and 15-HETE secretion: ASA 500 or 1000 μg/ml, with or without gentamicin 250 or 500 μg/ml, 6-48 hrs; for secretion of acetylated-COX2 products, as measured through 5-HETE and 15-HETE secretion: CytoM1+TGFb1
Method: To this end, as before, multiple primary HTCF cell lines were cultured in DMEM w/10% FBS in 6-well culture plates, incubated at 37° C. and 5% CO2, until 90% confluent. The culture media was removed, wells washed with PBS, and then fresh DMEM w/0% FBS was added. After 24 hrs of serum starvation, fresh DMEM w/0% FBS was added, this time containing a physiologically relevant inflammation/wound healing induction mixture (1 ng/ml each of: IL-1b, TNFa, IFNγ, TGFb). After 12 hrs incubation, the induction media was removed, the wells were washed with PBS and fresh DMEM w/0% FBS was added containing one of ten experimental treatments for an incubation period of 48 hrs: 1) non-induced control (NIC: received DMEM w/0% FBS instead of the induction media), and 2) CytoM1+TGFB1 (DMEM w/0% FBS and 1 ng/ml each of: IL-1b, TNFa, IFNγ, TGFb), and 3) CytoM1/TGFB1/Gent250 (DMEM w/0% FBS, 1 ng/ml each of TGFB1, TGFB2, VEGF, CCN2 and 250 μg/ml gentamicin), and 4) CytoM1/TGFB1/Gent500 (DMEM w/0% FBS, 1 ng/ml each of TGFB1, TGFB2, VEGF, CCN2 and 500 μg/ml gentamicin), and 5) CytoM1/TGFB1/ASA500 (DMEM w/0% FBS, 1 ng/ml each of TGFB1, TGFB2, VEGF, CCN2, and 500 μg/ml ASA), and 6) CytoM1/TGFB1/ASA500/Gent250 (DMEM w/0% FBS, 1 ng/ml each of TGFB1, TGFB2, VEGF, CCN2, 500 μg/ml ASA and 250 μg/ml gentamicin), and 7) CytoM1/TGFB1/ASA1000 (DMEM w/0% FBS, 1 ng/ml each of TGFB1, TGFB2, VEGF, CCN2 and 1000 μg/ml ASA), and 8) CytoM1/TGFB1/ASA1000/Gent500 (DMEM w/0% FBS, 1 ng/ml each of TGFB1, TGFB2, VEGF, CCN2, 1000 μg/ml ASA, and 500 μg/ml gentamicin), and 9) CytoM1/TGFB1/APHS12 (DMEM w/0% FBS, 1 ng/ml each of TGFB1, TGFB2, VEGF, CCN2 and 12 μg/ml o-(acetoxyphenyl)hept-2-ynyl sulfide (APHS), and 10) CytoM1/TGFB1/APHS12/Gent250 (DMEM w/0% FBS, 1 ng/ml each of TGFB1, TGFB2, VEGF, CCN2, 12 μg/ml o-(acetoxyphenyl)hept-2-ynyl sulfide (APHS) and 250 μg/ml gentamicin). At 6, 12, 24 and 48 hrs after addition of the experimental treatments, 250 ul of supernatant was removed from each well, replaced with 250 ul of fresh DMEM w/0% FBS, and stored at −80° C. for subsequent LC-MS/MS analysis. After 48 hrs, the wells were washed with ice cold PBS three times and total cellular protein from the HTCF monolayer was collected for quantification and subsequent western blot analyses. The absolute quantity of protein within each culture well's HTCF monolayer was used as a means to standardize the relative secretion of lipid mediators by HTCFs into the culture well's supernatant.
This is a well-established method to determine the relative activity of cyclooxygenase, acetyl-COX2 and lipoxygenase biosynthetic pathways. In brief, the ratios of the integrated areas of the chromatographic peaks corresponding to each analyte and the integrated areas of the peaks corresponding to each analyte's internal standard (with known absolute quantity) are used to determine the relative quantity of each analyte in a given sample. After supernatant sample collection, 250 ul of methanol containing 100 μg of each deuterated internal standard was added. Samples were then vigorously vortexed and centrifuged at 10,000 g for 10 min before loading onto solid-phase extraction cartridges (Strata-X 33 um Polymeric Reversed Phase, 10 mg, Phenomenex 8B-S100-AAK), that were previously activated with 2 ml methanol and rinsed with 2 ml water. […] After washing with 5 ml water, extracts were eluted with 1 ml methanol. Solvent was then evaporated under vacuum in a SpeedVac centrifuge, and the extract was resuspended in 100 ul acetonitrile/water 60:40 (v/v). An aliquot of 20 ul was injected into the LC-MS/MS system for analysis. […] A Sciex Triple Quad 6500+ mass spectrometer with multiple reaction monitoring was used in negative ion mode. The chromatographic profile of the ion count for each m/z transition was monitored, and the area under the peaks (ion intensity vs elution time) was integrated using commercial software (MultiQuant, Sciex).

Compound: CCCCC#CCSc1ccccc1OC(C)=O [APHS, o-(acetoxyphenyl)hept-2-ynyl sulfide]
- net enzymatic activity, acetylated-COX2 vs COX2 production of lipid mediators (APHS 12 μg/ml, alone or with gentamicin 250 μg/ml, vs inf. cytokines control): significantly shift the net enzymatic activity toward net acetylated-COX2 production of lipid mediators
- CytoM1+TGFb1 induced COX2 activity, as measured through PGE2 and kPGF1a secretion (APHS 12 μg/ml): significantly inhibit COX2 activity
- secretion of acetylated-COX2 products, as measured through 5-HETE and 15-HETE secretion (APHS 12 μg/ml): profoundly and significantly increased the secretion of acetylated-COX2 products relative to all other treatment groups

Compound: CC(=O)Oc1ccccc1C(=O)O [ASA, acetylsalicylic acid]
- relative amount of COX2 products relative to inf. cytokines control (ASA 500 μg/ml): significantly reduce the relative amount of COX2 products relative to the inf. cytokines control group
- balance of enzymatic activity (COX2:acetyl-COX2 ratio) (ASA 500 μg/ml, alone or with gentamicin 250): positive values for the COX2:acetyl-COX2 ratio at all timepoints
- relative amount of COX2 products relative to inf. cytokines control (ASA 1000 μg/ml): significantly reduce the relative amount of COX2 products relative to the inf. cytokines control group
- balance of enzymatic activity (COX2:acetyl-COX2 ratio) (ASA 1000 μg/ml, alone or with gentamicin 500): unable to significantly shift the balance of enzymatic activity toward net actyl-COX2 production relative to COX2 production
- CytoM1+TGFb1 induced COX2 activity, as measured through PGE2 and kPGF1a secretion (APHS 12 μg/ml): significantly inhibit CytoM1+TGFb1 induced COX2 activity
- secretion of acetylated-COX2 products, as measured through 5-HETE and 15-HETE secretion (APHS 12 μg/ml): either no effect or a significantly smaller effect on acetylated-COX2 products relative to the ASA/Gent experimental group

Source: patent US20210196731A1, “COMPOSITIONS AND METHODS FOR TREATING OCULAR INFLAMMATION AND OCULAR SCARRING” (priority 2018, published 2021)
